Key:
EAE induced animals [1] = experiment: Leukocyte infiltrates in brain and spinal cord of EAE animals by H and E staining; format: in vivo, C57BL/6 mice; conditions: 25 days after treatment, versus saline treated EAE controls, P<0.05, n=3
Source text: (§1) Animals were sacrificed 25 days after GMFBI.1 compound treatment and the levels of leukocyte infiltrates in brain as shown in FIG. 7C and spinal cord as shown in FIG. 7D were compared against EAE control by Haematoxylin and Eosin(H and E) staining.

[2] = tested on: proinflammatory and anti-inflammatory cytokines; experiment: Cytokine levels in treated EAE animals (relative fold change); format: in vivo, C57BL/6 mice
Source text: From FIG. 7G, it is observed that down regulation of these inflammatory cytokines has potential significance in the therapy and increased levels of anti-inflammatory cytokines particularly IL-10 and TGF beta levels. In MS patients, the levels of TGF beta and IL-10 are low compared to healthy individuals and significant down regulation of IL-17 are promising as IL-17 drives the inflammation in EAE and MS disease.

NFκB = NFκB expression in LPS stimulated cultured astrocytes; format: cell-based; conditions: 500 ng/mL, n=3
[3] = Bio-distribution in compartments of normal healthy mice; format: in vivo, C57BL/6 mice; conditions: 300 μg intraperitoneal
Experimental: (§2) The GMFBI.1 compound distribution in various compartments (organs, plasma & urine) of normal healthy mice at different time intervals (30 minutes, 1, 2, 3 and 6 hours) and its distribution profile (n=3 per group), is shown in FIG. 6C. […] Further, again 300 μg of GMFBI.1 was injected in EAE animals and the blood brain barrier is compromised as in MS patients. […] Based on these observations, mice was injected twice daily with 300 μg/mice (12 mg/Kg) GMFBI.1 for 25 days. Both AST and ALT activity was measured at 3, 10 and 25 days.

p38MAPK = p38MAPK expression in LPS stimulated cultured astrocytes; format: cell-based; conditions: 500 ng/mL, n=3
EAE induced animals [4] = experiment: Reversal of EAE: clinical scores in paralyzed EAE animals; format: in vivo, C57BL/6 mice
Experimental: (§3) Treatment was given to a group of animals with average clinical score of 3 for a period of 2 weeks. EAE induced animals were injected at clinical score 3.5 with GMFBI.1 compound 300 μg/mice (12 mg/Kg) twice daily at day 13.EAE clinical scores of C57BL/6 mice treated with GMFBI.1 compound ([…] i.p twice daily) and controls with saline (n=5 per group) is shown in FIG. 7A.
as §1

[5] = Distribution into brain of EAE mice; format: in vivo
Experimental: as §2, §3

astrocytes = experiment: MTT cell viability assay on cultured astrocytes; format: cell-based; conditions: 48 hours incubation, 0-3 mg/mL tested
Experimental: In order to test whether virtually screened GMFBI.1 drug like compound is toxic to the cells, different concentrations (0-3 mg/mL) of GMFBI.1 on astrocytes were tested. Test includes performing MTT cell viability assay following 48 hours of incubation with GMFBI.1. […] NC represents […] with 10% Triton X-100.

[6] = In vivo toxicity: serum AST and ALT liver enzymes; set-up: species or system mice; conditions: 3, 10 and 25 days
Experimental: In vitro efficacy of GMFBI.1 compound in down regulating the expression of both proinflammatory mediators p38MAPK and NFκB under the control of GMF-β and its non-toxic nature at lower concentrations was first evaluated. The levels of aspartate amino transferase (AST) and alanine amino transferase (ALT) were measured spectrophotometrically from serum of GMFBI.1 compound administered animals to monitor its liver function as shown in FIG. 6A and FIG. 6B respectively. […] Grey shaded region denotes the normal range of AST and ALT enzymes in mice in FIG. 6A and FIG. 6B respectively.
The GMFBI.1 compound distribution in various compartments (organs, plasma & urine) of normal healthy mice at different time intervals (30 minutes, 1, 2, 3 and 6 hours) and its distribution profile (n=3 per group), is shown in FIG. 6C. […] Further, again 300 μg of GMFBI.1 was injected in EAE animals and the blood brain barrier is compromised as in MS patients. […] Both AST and ALT activity was measured at 3, 10 and 25 days.

GMF-β = GMF-β (Homo sapiens, UniProt P60983); experiment: In vitro phosphorylation of purified GMF-β by PKA; format: biochemical; conditions: 250 ng/mL GMFBI.1, 1 μg/mL GMF-β, versus lane without compound
Sequence of GMF-β (P60983 2-142 limits assumed): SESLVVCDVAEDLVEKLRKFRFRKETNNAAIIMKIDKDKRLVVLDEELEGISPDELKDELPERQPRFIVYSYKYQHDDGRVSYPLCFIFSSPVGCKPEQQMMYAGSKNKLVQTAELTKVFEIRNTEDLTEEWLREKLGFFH
Experimental: With the in silico proof of concept showing high binding efficacy to GMF-β phosphorylation sites, in vitro phosphorylation studies using PKA (PKA phosphorylation results in activation of the downstream proinflammatory cascade) and purified GMF-β in presence and absence of GMFBI.1 compound is performed. […] In FIG. 4B, “+” sign indicates experiment with 1 μg/mL GMF-β and PKA, “−” indicates control reaction in the absence of PKA and “GMFBI.1” indicates phosphorylation level on GMF-β in the presence of small molecule GMFBI.1 (250 ng/mL).

[7] = versus untreated EAE controls, n=3
[8] = 300 μg/mice twice daily for 25 days

For `OCc1cccc2[nH]ncc12` [GMFBI.1, (1-H Indazol-4-yl)-methanol], the “number of cellular infiltrates in brain” value (EAE induced animals [1]) was “significant reduction in the number of cellular infiltrates”, the “number of cellular infiltrates in spinal cord” value (EAE induced animals [1]) was “significant reduction in the number of cellular infiltrates” and the IL1-β level ([2]; following treatment) was “down regulated significantly”. For the same molecule, the GMCSF level ([2]; versus EAE controls, n=3) was “significant decrease”, the IFN-γ level ([2]; versus EAE controls, n=3) was “significant decrease” and the IL-6 level ([2]; versus EAE controls, n=3) was “significant decrease”. The IL-17A level ([2]; versus EAE controls, n=3) was “significant decrease”, the TNF-α level ([2]; versus EAE controls, n=3) was “significant decrease” and the “IL-10 level (anti-inflammatory)” value [2, 7] was “elevated significantly”. For the same molecule, the “TGF-β level (anti-inflammatory)” value [2, 7] was “elevated significantly”, the NFκB protein expression (NFκB) was “statistically significant suppression” and the “amount of compound in liver within three hours” value [3] was “significantly reduced compared to 2 hrs”. The “compound in brain of healthy mice at any time period” value [3] was “no GMFBI.1 compound was detected in the brains”, the “compound in kidney within three hours” value [3] was “transiently seen in kidney” and the “compound in plasma at 30 mins to 1 hr” value [3] was “most of the GMFBI.1 compound remained in the plasma”. For the same molecule, the “compound in plasma by two hours” value [3] was “no GMFBI.1 compound could be detected in plasma”, the “compound in urine within three hours” value [3] was “found majorly in urine” and the “free compound in organs by 6 hrs” value [3] was “no free GMFBI.1 compound in any of the organs were detected”. For the same molecule, the p38MAPK protein expression (p38MAPK) was “statistically significant suppression”, the “EAE clinical score by day 18” value (EAE induced animals [4]; 300 μg/mice (12 mg/Kg; also printed 14 mg/kg i.p) twice daily from day 13, n=5) was “the clinical score started to improve” and the “clinical score versus control” value (EAE induced animals [4]; from 7th day after treatment, P<0.001) was “Significant reduction in the clinical score”. The “body weight over time versus control animals” value (EAE induced animals [4]; treated EAE animals) was “significant weight gain”, the “EAE clinical score by day 40” value (EAE induced animals [4]; twice daily i.p. from day 13) was “very low clinical score” and the “locomotor motion by day 30” value (EAE induced animals [4]; twice daily i.p. from day 13) was “able to show improvements in locomotor motion and was able to walk”. The “amount of compound in brain by 3 hrs” value ([5]; 300 μg injected, EAE animals) was at most 15 µg, the “compound in brain by 6 hrs” value ([5]; 300 μg injected, EAE animals) was “no GMFBI.1 may be detected in the brain” and the “time by which compound is detected in brain” value ([5]; 300 μg injected, EAE animals) was at most 2 h. The “blood brain barrier crossing” value ([5]; EAE mice) was “able to cross the blood brain barrier”, the “retention in the system” value ([5]; EAE mice) was “at least three hours” and the “concentration up to which astrocytes remained viable” value (astrocytes) was at most 1000 µg/mL. For the same molecule, the “ALT activity level versus control” value [6, 8] was “remained similar to that of control”, the “AST activity level versus control” value [6, 8] was “remained similar to that of control” and the “serum ALT level versus saline controls” value ([6]; 14 mg/kg twice daily) was “No significant difference”. For the same molecule, the “serum AST level versus saline controls” value ([6]; 14 mg/kg twice daily) was “No significant difference” and the “phosphorylation of GMF-β by PKA” value (GMF-β) was “several fold decrease in phosphorylation”.

Source: patent US11110078B2, “Composition and method for treatment of diseases associated with central nervous system inflammation” (AMRITA VISHWA VIDYAPEETHAM, priority 2019, dated 2021)
